Measured values taken from patent EP4603105A1, “PHARMACEUTICAL COMPOSITION CONTAINING CYCLIC COMPOUND HAVING SELECTIVE KRAS INHIBITORY EFFECT AGAINST HRAS AND NRAS” (CHUGAI SEIYAKU KABUSHIKI KAISHA, priority 2022, dated 2024).
*1 amine or outer side, *2 acyl side, *3 side chain or, on linkers, in order; H or OH if unused. Where a SMILES comes first, the peptide text is derived from it. Bridges are numbered along the chain shown (N, C = ends). [ ]: non-standard residue; d: D form. The star is where a group is joined. hPhe(3-Cl-4-CF3) = N[C@@H](CCc1ccc(C(F)(F)F)c(Cl)c1)C(=O)O; X39 = O=C([C@H](Cc1ccc(C(F)(F)F)cc1)N(CC1CCC1)[*:1])[*:2]; X29 = C#CCN([C@@H](Cc1ccc(C(F)(F)F)cc1)C(=O)[*:2])[*:1]; NPrPhe(4-CF3) = CCCN[C@@H](Cc1ccc(C(F)(F)F)cc1)C(=O)O; NMeGly(cPent) = CN[C@H](C(=O)O)C1CCCC1; NMeD = CN[C@@H](CC(=O)O)C(=O)O; NMeL = CN[C@@H](CC(C)C)C(=O)O; Morpholide = C1CN(*)CCO1; NMeA = CN[C@@H](C)C(=O)O; Ac5c = NC1(C(=O)O)CCCC1; Aze = O=C(O)[C@@H]1CCN1; Sar = CNCC(=O)O

What was measured:
[1] = target: GDP-bound NRAS wild-type protein (Homo sapiens, UniProt P01111); assay: Binding to NRAS by surface plasmon resonance (SPR), KD and KD ratio to KRAS
Outline: (§1)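 Affinity is measured by surface plasmon resonance at 30°C against captured, GDP-loaded RAS carrying a biotinylated Avi tag. Compounds are titrated by single-cycle kinetics, and KD comes from a 1:1 fit.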

[2] = target: HRAS wild-type protein (Homo sapiens, UniProt P01112); assay: Binding to HRAS by surface plasmon resonance (SPR), KD and KD ratio to KRAS
Outline: as §1

[3] = test system: human lung cancer strain NCI-H441; format: cell-based
Outline: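 Readout: […] after the ATP-based reagent. Compound: serial dilutions in dimethyl sulfoxide.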

[4] = ratio of KD for GDP-bound NRAS wild-type protein to KD for KRAS
[5] = ratio of KD for HRAS wild-type protein to KD for KRAS
[6] = ratio of the KD value with respect to GDP-bound NRAS wild-type protein to the KD value with respect to KRAS
[7] = ratio of the KD value with respect to HRAS wild-type protein to the KD value with respect to KRAS
[8] = ratio of KD value for GDP-bound NRAS wild-type protein to KD value for KRAS (SPR)
[9] = ratio of KD value for HRAS wild-type protein to KD value for KRAS (SPR)

HRAS wild-type protein, sequence (P01112 whole entry): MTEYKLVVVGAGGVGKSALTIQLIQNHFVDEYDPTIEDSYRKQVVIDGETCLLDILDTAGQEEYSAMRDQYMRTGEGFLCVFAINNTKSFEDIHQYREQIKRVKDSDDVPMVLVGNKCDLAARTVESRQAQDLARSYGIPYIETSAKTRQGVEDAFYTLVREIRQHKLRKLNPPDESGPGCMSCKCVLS
GDP-bound NRAS wild-type protein, sequence (P01111 whole entry): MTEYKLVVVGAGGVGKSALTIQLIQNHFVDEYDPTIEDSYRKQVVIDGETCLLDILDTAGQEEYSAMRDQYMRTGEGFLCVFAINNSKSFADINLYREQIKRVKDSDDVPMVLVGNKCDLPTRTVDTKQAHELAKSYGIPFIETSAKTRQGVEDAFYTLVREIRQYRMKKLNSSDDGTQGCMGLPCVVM

| SMILES | IC50 [3] [nM] | NRAS /KRAS [1, 4] | HRAS /KRAS [2, 5] | NRAS /KRAS [1, 6] | HRAS /KRAS [2, 7] | NRAS /KRAS [1, 8] | HRAS /KRAS [2, 9] |
| --- | --- | --- | --- | --- | --- | --- | --- |
| CC[C@H](C)[C@@H]1NC(=O)[C@H](C2CC2)N(C)C(=O)C[C@@H](C(=O)N(C)CC)N(C)C(=O)[C@H](C2CCCC2)N(C)C(=O)C2(CC(C)(C)C2)NC(=O)[C@@H]2C[C@H](C)CN2C(=O)[C@H](CCc2ccc(C(F)(F)F)c(OC)c2)NC(=O)CN(C)C(=O)[C@H](Cc2ccc(C(F)(F)F)cc2)N2CC/C=C\C[C@@H](C2=O)N(C)C(=O)CN(C)C1=O [PP2007] | 14.9 |  |  | AA (a compound having 20 or more is denoted as AA) | B (a compound having 3 or more and less than 10 is denoted as B) |  |  |
| CCC[C@H]1C(=O)N[C@@H]([C@@H](C)CC)C(=O)N(C2CC2)CC(=O)N(C)[C@H]2C/C=C\CCN(C2=O)[C@@H](Cc2ccc(C)cc2)C(=O)N(C)CC(=O)N[C@@H](CCc2cc(C)c(C(F)F)c(C)c2)C(=O)N2C[C@H](OCC)C[C@H]2C(=O)NC2(CC(C)(C)C2)C(=O)N(C)[C@@H](C2CCCC2)C(=O)N(C)[C@H](C(=O)N(C)C)CC(=O)N1C [PP2873] | 128 | A (a compound having 10 or more and less than 20 is denoted as A) | A (a compound having 10 or more and less than 20 is denoted as A) |  |  |  |  |
| CCCN(C)C(=O)[C@@H]1CC(=O)N(C)[C@@H](CC)C(=O)N[C@@H]([C@@H](C)CC)C(=O)N(C)CC(=O)N(C)[C@H]2C/C=C\CCN(C2=O)[C@@H](Cc2ccc(C(F)(F)F)cc2)C(=O)N(C)CC(=O)N[C@@H](CCc2cc(F)c(C(F)(F)F)c(F)c2)C(=O)N2CC[C@H]2C(=O)NC2(CCC2)C(=O)N(C)[C@@H](C2CCCC2)C(=O)N1C [PP2915] | 129 | A (a compound having 10 or more and less than 20 is denoted as A) | A (a compound having 10 or more and less than 20 is denoted as A) |  |  |  |  |
| CC[C@H](C)[C@@H]1NC(=O)[C@H](CC(C)C)N(C)C(=O)C[C@@H](C(=O)N2CCOCC2)N(CC)C(=O)[C@H](C2CCCC2)N(C)C(=O)C2(CCCC2)NC(=O)[C@@H]2CCCN2C(=O)[C@H](CCc2ccc(C(F)(F)F)c(Cl)c2)NC(=O)CN(C)C(=O)[C@H](Cc2ccc(F)cc2)N2CCCCC[C@@H](C2=O)N(C)C(=O)CN(C)C1=O [PP0970] | 340 | B (a compound having 3 or more and less than 10 is denoted as B) | B (a compound having 3 or more and less than 10 is denoted as B) |  |  |  |  |
| CC[C@H](C)[C@@H]1NC(=O)[C@H](CC2CC2)N(C)C(=O)C[C@@H](C(=O)N(C)C)N(C)C(=O)[C@H](C2CCCC2)N(C)C(=O)C2(CCC2)NC(=O)[C@@H]2[C@@H](OCC(F)F)CCN2C(=O)[C@H](CCc2cc(F)c(C(F)(F)F)c(F)c2)NC(=O)CN(C)C(=O)[C@H](Cc2ccc(C(F)(F)F)cc2)N2CC/C=C\C[C@@H](C2=O)N(C)C(=O)CN(C)C1=O [PP1533] | 23.8 |  |  |  |  | AA (a compound having 20 or more is denoted as AA) | A (a compound having 10 or more and less than 20 is denoted as A) |
| CC[C@H](C)[C@@H]1NC(=O)[C@H](CC)N(C)C(=O)C[C@@H](C(=O)N(C)C)N(C)C(=O)[C@H](C2CCCC2)N(C)C(=O)C2(CCC2)NC(=O)[C@@H]2C[C@H](N3CCC(F)(F)CC3)CN2C(=O)[C@H](CCc2cc(F)c(C(F)(F)F)c(F)c2)NC(=O)CN(C)C(=O)[C@H](Cc2ccc(C(F)(F)F)cc2)N2CCCCC[C@@H](C2=O)N(C)C(=O)CN(C)C1=O [PP0731] | 110 |  |  | B (a compound having 3 or more and less than 10 is denoted as B) | B (a compound having 3 or more and less than 10 is denoted as B) |  |  |
| CCCN(C)C(=O)[C@@H]1CC(=O)N(C)[C@@H](C2CC2)C(=O)N[C@@H]([C@@H](C)CC)C(=O)N(C)CC(=O)N(C)[C@H]2C/C=C\CCN(C2=O)[C@@H](Cc2ccc(C(F)(F)F)cc2)C(=O)N(C)CC(=O)N[C@@H](CCc2ccc(C(F)(F)F)c(OC)c2)C(=O)N2C[C@H](OCC)C[C@H]2C(=O)NC2(CC(C)(C)C2)C(=O)N(C)[C@@H](C2CCCC2)C(=O)N1C [PP1983] | 20.2 |  |  | AA (a compound having 20 or more is denoted as AA) | A (a compound having 10 or more and less than 20 is denoted as A) |  |  |
| CC[C@H](C)[C@@H]1NC(=O)[C@H](CC(C)C)N(C)C(=O)C[C@@H](C(=O)N2CCOCC2)N(C)C(=O)[C@H](C2CCCC2)N(C)C(=O)C2(CCCC2)NC(=O)[C@@H]2CCCN2C(=O)[C@H](CCc2ccc(C(F)(F)F)c(Cl)c2)NC(=O)CN(C)C(=O)[C@H](Cc2ccc(C(F)(F)F)cc2)N(CC2CCC2)C(=O)CN(C)C(=O)CN(C)C1=O [PP0123] ([NMeL]I[Sar][Sar][X39][Sar][hPhe(3-Cl-4-CF3)]P[Ac5c][NMeGly(cPent)][NMeD]-Morpholide; lactam N-11) | 12.5 | B (a compound having 3 or more and less than 10 is denoted as B) | C (A compound having a KD ratio of 0.1 or more and less than 3 is denoted as C) |  |  |  |  |

These reach a lower IC50 [3]. Values come first.

| IC50 [3] [nM] | SMILES | NRAS /KRAS [1, 4] | HRAS /KRAS [2, 5] | NRAS /KRAS [1, 6] | HRAS /KRAS [2, 7] | NRAS /KRAS [1, 8] | HRAS /KRAS [2, 9] |
| --- | --- | --- | --- | --- | --- | --- | --- |
| 6.8 | C#CCN1C(=O)[C@@H]2CCN2C(=O)[C@H](C)N(C)C(=O)[C@H]([C@@H](C)CC)NC(=O)[C@H](CC(C)C)N(C)C(=O)C[C@@H](C(=O)N2CCOCC2)N(C)C(=O)[C@H](C2CCCC2)N(C)C(=O)C2(CCCC2)NC(=O)[C@@H]2CCCN2C(=O)[C@H](CCc2ccc(C(F)(F)F)c(Cl)c2)NC(=O)CN(C)C(=O)[C@@H]1Cc1ccc(C(F)(F)F)cc1 [PP0116] ([NMeL]I[NMeA][Aze][X29][Sar][hPhe(3-Cl-4-CF3)]P[Ac5c][NMeGly(cPent)][NMeD]-Morpholide; lactam N-11) | C (A compound having a KD ratio of 0.1 or more and less than 3 is denoted as C) | C (A compound having a KD ratio of 0.1 or more and less than 3 is denoted as C) |  |  |  |  |
| 2.4 | CCC[C@H]1C(=O)N[C@@H]([C@@H](C)CC)C(=O)N(C)CC(=O)N(C)[C@H]2C/C=C\CCN(C2=O)[C@@H](Cc2ccc(C)cc2)C(=O)N(C)CC(=O)N[C@@H](CCc2cc(F)c(C(F)(F)F)c(F)c2)C(=O)N2C[C@H](OCC)C[C@H]2C(=O)N(C)C2(CCC2)C(=O)N(C)[C@@H](C2CCCC2)C(=O)N(C)[C@H](C(=O)N(C)C)CC(=O)N1C [PP1793] |  |  |  |  | A (a compound having 10 or more and less than 20 is denoted as A) | B (a compound having 3 or more and less than 10 is denoted as B) |
| 10.3 | CC[C@H](C)[C@@H]1NC(=O)[C@H](C)N(C)C(=O)C[C@@H](C(=O)N(C)C)N(C)C(=O)[C@H](C2CCCC2)N(C)C(=O)C2(CCCC2)NC(=O)[C@@H]2CC(F)(F)CN2C(=O)[C@H](CCc2cc(F)c(C(F)(F)F)c(F)c2)NC(=O)CN(C)C(=O)[C@H](Cc2ccc(C(F)(F)F)cc2)N2CCCC[C@@H](C2=O)N(C)C(=O)CN(C)C1=O [PP0583] |  |  | C (A compound having a KD ratio of 0.1 or more and less than 3 is denoted as C) | C (A compound having a KD ratio of 0.1 or more and less than 3 is denoted as C) |  |  |
| 2.7 | C#CC[C@H]1C(=O)N[C@@H]([C@@H](C)CC)C(=O)N(C)CC(=O)N(C)[C@H]2C/C=C\CCN(C2=O)[C@@H](Cc2ccc(C(F)(F)F)cc2)C(=O)N(C)CC(=O)N[C@@H](CCc2cc(F)c(C(F)(F)F)c(F)c2)C(=O)N2C[C@H](OCC)C[C@H]2C(=O)NC2(CC(F)(F)C2)C(=O)N(C)[C@@H](C2CCCC2)C(=O)N(C)[C@H](C(=O)N(C)CCC)CC(=O)N1C [PP1737] |  |  |  |  | A (a compound having 10 or more and less than 20 is denoted as A) | A (a compound having 10 or more and less than 20 is denoted as A) |
| 3.5 | CCC[C@H]1C(=O)N[C@@H]([C@@H](C)CC)C(=O)N(C)CC(=O)N(C)[C@H]2C/C=C\CCN(C2=O)[C@@H](Cc2ccc(C)cc2)C(=O)N(C)CC(=O)N[C@@H](CCc2ccc3sc(F)c(C)c3c2)C(=O)N2C[C@H](OCC)C[C@H]2C(=O)NC2(CC(C)(C)C2)C(=O)N(C)[C@@H](C2CCCC2)C(=O)N(C)[C@H](C(=O)N(C)C)CC(=O)N1C [PP2949] | A (a compound having 10 or more and less than 20 is denoted as A) | A (a compound having 10 or more and less than 20 is denoted as A) |  |  |  |  |
| 1.5 | CCCN1C(=O)[C@@H]2CCN2C(=O)[C@H](C)N(C)C(=O)[C@H]([C@@H](C)CC)NC(=O)[C@H](CC(C)C)N(C)C(=O)C[C@@H](C(=O)N(C)C)N(C)C(=O)[C@H](C2CCCC2)N(C)C(=O)C2(CCCC2)NC(=O)[C@@H]2CCCN2C(=O)[C@H](CCc2ccc(C(F)(F)F)c(Cl)c2)NC(=O)CN(C)C(=O)[C@@H]1Cc1ccc(C(F)(F)F)cc1 [PP0178] ([NMeL]I[NMeA][Aze][NPrPhe(4-CF3)][Sar][hPhe(3-Cl-4-CF3)]P[Ac5c][NMeGly(cPent)][NMeD]-NMe2; lactam N-11) | C (A compound having a KD ratio of 0.1 or more and less than 3 is denoted as C) | B (a compound having 3 or more and less than 10 is denoted as B) |  |  |  |  |
| 10.3 | CC[C@H](C)[C@@H]1NC(=O)[C@H](CC2CC2)N(C)C(=O)C[C@@H](C(=O)N(C)C)N(C)C(=O)[C@H](C2CCCC2)N(C)C(=O)C2(CCC2)NC(=O)[C@@H]2C[C@@H](C(F)(F)F)CN2C(=O)[C@H](CCc2cc(F)c(C(F)(F)F)c(F)c2)NC(=O)CN(C)C(=O)[C@H](Cc2ccc(C(F)(F)F)cc2)N2CC/C=C\C[C@@H](C2=O)N(C)C(=O)CN(C)C1=O [PP1498] |  |  |  |  | A (a compound having 10 or more and less than 20 is denoted as A) | A (a compound having 10 or more and less than 20 is denoted as A) |
